In patent US9371363B2, “Peptides and their use” (Novabiotics Limited, priority 2007, dated 2016):
Read-outs that look alike come from different tables or passages of the source. Where no end group is shown, it is not given here.

Tests used:
Format in all cases: cell-based
E. coli = tested on: E. coli
Protocol: (§1) Broth Dilution Antibacterial Susceptibility Testing
(§2) The sensitivity of relevant bacterial strains to the peptides (was determined using Clinical Laboratory Standard Institute (CLSI; formerly NCCLS) Approved Standards. Bacterial susceptibility was tested using “Methods for Dilution Antimicrobial Susceptibility Tests for Bacteria That Grow […]; Approved Standard—Seventh Edition M7-A7”

S. aureus = tested on: S. aureus
Protocol: as §1, §2

P. acnes = conditions: P. acnes; values marked * in mg/ml
Protocol: as §1, §2

Ps. aeruginosa = conditions: Ps. aeruginosa; values marked * in mg/ml
Protocol: as §1, §2

Str. pyogenes = tested on: Str. pyogenes
Protocol: as §1, §2

## N=C(N)NCCC[C@H](NC(=O)[C@H](CCCNC(=N)N)NC(=O)[C@H](CCCNC(=N)N)NC(=O)[C@H](CCCNC(=N)N)NC(=O)[C@H](CCCNC(=N)N)NC(=O)[C@H](CCCNC(=N)N)NC(=O)[C@@H](N)CCCNC(=N)N)C(=O)O [NP105, RRRRRRR (SEQ ID NO: 23)]
E. coli
  Minimum Inhibitory Concentration, antimicrobial activity, E. coli: >2 mM
S. aureus
  Minimum Inhibitory Concentration, antimicrobial activity, S. aureus: >2 mM

## (R)n, n = 28-86 [NP121]
P. acnes
  Minimum Inhibitory Concentration, antimicrobial activity, P. acnes: 0.01* mg/ml
S. aureus; S. aureus, values marked * in mg/ml
  Minimum Inhibitory Concentration, antimicrobial activity, S. aureus: 0.0313* mg/ml
Ps. aeruginosa
  Minimum Inhibitory Concentration, antimicrobial activity, Ps. aeruginosa: 0.0625* mg/ml

## KKKKKKK [NP104, KKKKKKK (SEQ ID NO: 35)]
E. coli
  Minimum Inhibitory Concentration, antimicrobial activity, E. coli: >2 mM
Str. pyogenes
  Minimum Inhibitory Concentration, antimicrobial activity, Str. pyogenes: 1 mM
S. aureus
  Minimum Inhibitory Concentration, antimicrobial activity, S. aureus: >2 mM
